From ChEMBL document CHEMBL3988442, “University of Dundee, Small-Polar-MMV Screening Library” (2021)
Values joined by “and” are separate entries in the source; they are usually repeats but may differ in a detail not shown here. Equal entries are not always repeated.

Target: T1, Coenzyme A biosynthesis bifunctional protein CoaBC (Mycobacterium tuberculosis (strain ATCC 25618 / H37Rv), UniProt P9WNZ1)
T1 sequence (P9WNZ1 whole entry): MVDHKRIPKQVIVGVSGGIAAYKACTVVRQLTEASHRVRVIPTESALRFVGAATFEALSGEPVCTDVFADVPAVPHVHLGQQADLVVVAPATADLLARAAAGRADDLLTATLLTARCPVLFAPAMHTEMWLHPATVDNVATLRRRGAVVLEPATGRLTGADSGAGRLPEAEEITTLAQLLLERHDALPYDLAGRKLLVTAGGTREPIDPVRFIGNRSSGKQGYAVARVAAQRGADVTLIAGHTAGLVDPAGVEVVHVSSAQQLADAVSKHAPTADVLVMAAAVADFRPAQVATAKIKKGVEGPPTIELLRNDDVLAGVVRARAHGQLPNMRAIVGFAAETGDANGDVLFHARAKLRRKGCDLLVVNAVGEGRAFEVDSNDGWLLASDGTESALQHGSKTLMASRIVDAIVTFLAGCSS
Experiment: Biomol Green assay for MtCoaBC inhibitor, OD650 read
Format: functional

SMILES	IC50
CC(C)N1CC2(CCC1=O)CCN(c1ccnc3ccccc13)CC2	> 30.2 µM
O=C(CN1CCN(C(=O)c2ccccc2)CC1)Nc1ncc(Br)cc1Br	> 30.2 µM
CN1CCOC[C@H]1c1nc(-c2ccc(F)cc2F)c[nH]1	> 30.2 µM
CCCN(Cc1ccccc1C)C(CC)CO (centres undefined)	> 30.2 µM
Cc1cnc(N2CCn3cc(CNC(=O)CC4CC4)nc3C2)nc1	> 30.2 µM
CS(=O)(=O)N1CCN(C(=O)c2cc(-c3ccc(Br)s3)n[nH]2)CC1	> 30.2 µM
CC(NC(=O)CNC(=O)OC(C)(C)C)c1ccc(Cl)s1 (centres undefined)	> 30.2 µM
CCn1cc(Cl)c(C(=O)NCCCN(C)C)n1	> 30.2 µM
CN1C[C@@H](C(=O)N2CCCOCC2)[C@@]2(CCc3ccccc3C(=O)N2)C1	> 30.2 µM
CS(=O)(=O)c1ccc(CN2C[C@H]3CC[C@@H]2CN(c2ncccn2)C3)cc1	> 30.2 µM
CC1CCN(CCNC(=O)c2ccn(-c3ccc(F)cc3)n2)CC1	> 30.2 µM
O=C(NCCn1nc2ccccn2c1=O)c1cc[nH]n1	> 30.2 µM
CC(C)CN1C[C@@H]2OCC(=O)N(c3ccccc3)[C@@H]2C1	> 30.2 µM
O=C1CC(c2ccc(C(=O)O)cc2)c2c(sc3c2CCCC3)N1 (centres undefined)	> 50.1 µM
Cc1c(CN2CCCC(O)C2)[nH]c2ccc(F)cc12 (centres undefined)	> 30.2 µM
Cc1cccc(NC2CCN(C(=O)Nc3cn[nH]c3)CC2)n1	> 30.2 µM
COc1ccc(CN[C@@H]2CO[C@H](CNC(=O)N3CCOCC3)[C@H]2O)cc1	> 30.2 µM
CCN1C[C@H]2[C@@H](C1)N(S(=O)(=O)c1cccnc1)CC[C@H]2OC	> 30.2 µM
CCc1ncc(C(=O)N2CC[C@@H]3CC[C@H](C2)N3C)cn1	> 30.2 µM
Cc1noc(C2CCC3(CCN(C(=O)c4ccncn4)CC3)O2)n1 (centres undefined)	> 30.2 µM
Cc1nn(CC(=O)N2CCN(c3ncccn3)CC2)c(C)c1Cl	> 30.2 µM
COCCC(Cc1cccc(Br)c1)C(=O)O (centres undefined)	> 50.1 µM
Cn1cnc(S(=O)(=O)NCCN2CCCCCC2)c1Cl	> 30.2 µM

SMILES	IC50
Clc1cccc(Cl)c1CN(CCCN1CCOCC1)Cc1cccnc1	> 30.2 µM
c1ccc(Cc2noc(CCNC3CCOC4(CCOCC4)C3)n2)cc1 (centres undefined)	> 30.2 µM
CN(CC(C)(CO)CO)C(=O)Nc1cc(Cl)cc(Cl)c1	> 30.2 µM
CCN1CCCC(O)(CN(C)Cc2ccc(C)o2)C1 (centres undefined)	> 30.2 µM
CN1CCCC1c1ccc(N2CCOCC2)cn1 (centres undefined)	> 30.2 µM
OC(CN1CCC(c2ccn[nH]2)CC1)c1ccc(F)cc1F (centres undefined)	> 30.2 µM
O=C(NCCNc1ncccn1)C1CCCC1	> 30.2 µM
O=c1oc2ccccc2n1CCCN1CCCC1c1ccc(O)cc1 (centres undefined)	> 30.2 µM
CCc1nnc(SCc2nonc2C)n1C1CC1	> 30.2 µM
Cc1cc(C(=O)N[C@H](C)c2onc(-c3cccnc3)c2C(=O)O)c(C)o1	> 30.2 µM
COc1ccccc1CC(C)CC(=O)NC(C)C (centres undefined)	> 30.2 µM
COCC1c2nnn(CC3CC3)c2CCN1C(=O)N1CCCC1 (centres undefined)	> 30.2 µM
O=C(NCCc1ccccn1)c1n[nH]c2c1CCC2	> 30.2 µM
Cc1noc([C@@H]2C[C@H](NS(=O)(=O)Cc3ccccc3)CN2C)n1	> 30.2 µM
CC(C)NC1CCN(CCc2ccc3c(c2)CCO3)CC1	> 50.1 µM
CC(C(=O)N1CCCC1)S(=O)(=O)Cc1noc(C(C)(C)C)n1 (centres undefined)	> 30.2 µM
Cc1cnc2[nH]c(C(F)(F)F)c(CN3CCCC(CO)C3)c2c1 (centres undefined)	> 30.2 µM
Cc1cc(C)c(C(=O)NC(c2nnc3n2CCNCC3)C(C)C)c(C)c1 (centres undefined)	> 30.2 µM
CN1C(=O)C2(CCN(c3nccc4occc34)CC2)c2ccccc21	> 30.2 µM
Cc1c(C(=O)N2CCC2)nnn1-c1ccc2ncccc2c1	> 30.2 µM
Cc1[nH]ncc1C(=O)NCC(CO)Cc1ccc(Cl)cc1 (centres undefined)	> 30.2 µM
Cc1cnc(NC(=O)C(C)Oc2ccc3c(c2)OCO3)s1 (centres undefined)	> 30.2 µM
Cc1cccc(CN2C[C@@H](F)[C@@H](OCc3nc4ccccc4[nH]3)C2)n1	> 30.2 µM

SMILES	IC50
CN1CCN([C@H]2CCN(C(=O)c3cc(Cl)cn3C)C[C@H]2CCCO)CC1	> 30.2 µM
O=S(=O)(NC1CCCCC12OCCO2)c1cc(F)cc(F)c1 (centres undefined)	> 30.2 µM
CC(C)NS(=O)(=O)c1cc(C(=O)O)cc(-n2cc3c(n2)CCC3)c1	> 50.1 µM
CN(C)c1ccc(C(=O)N2CCC(c3cc4cnccc4[nH]3)CC2)cc1	> 30.2 µM
CNC(=O)[C@@]12CCC3(CCN(S(=O)(=O)C4CC4)CC3)[C@@H]1CN(C(C)=O)C2	> 30.2 µM
Cn1cc(CN2CCCC(c3nccnc3-c3cccc(F)c3)C2)cn1 (centres undefined)	> 30.2 µM
CN(Cc1nnc(C2CC2)n1C)C1CCN(Cc2ccncc2)C1 (centres undefined)	> 30.2 µM
CCC(=O)N1CCc2[nH]cnc2C12CCN(CC1CCOC1)CC2 (centres undefined)	> 30.2 µM
COc1cccc(CNC(=O)c2cc(C)nc(N3CCCCC3)n2)c1	> 30.2 µM
NC(=O)CN1CCC(NC(=O)COCCOc2ccccc2)CC1	> 30.2 µM
CCc1nc(NCCc2c(C)nn(CC)c2C)c2cnn(C)c2n1	> 30.2 µM
CN(CC(N)=O)C(=O)c1csc(Br)c1	> 30.2 µM
COc1ccccc1CNC(=O)CS(=O)(=O)Cc1ccccc1	> 30.2 µM
CC(Cc1ccco1)NC(=O)CCn1cccn1 (centres undefined)	> 30.2 µM
CN(C)C(C(=O)NCc1cc(C(C)(C)C)n[nH]1)c1ccc(F)cc1 (centres undefined)	> 30.2 µM
Cc1nc2c(C(=O)N[C@H]3C[C@H]4CN(C)CCN4C3)cccc2[nH]1	> 30.2 µM
c1ccc(-c2nc(CN3CCCC3Cn3cncn3)co2)cc1 (centres undefined)	> 30.2 µM
CCSCc1csc(-c2ccc(S(C)(=O)=O)cc2)n1	> 30.2 µM
Cc1ccc(C(=O)O)cc1CNC(=O)CN1CC[C@](C)(O)C(C)(C)C1	> 30.2 µM
Cc1nonc1OCCNC(=O)COc1ccc(F)cc1F	> 30.2 µM
Cc1cc(C2CCCN(CCNS(=O)(=O)c3ccccc3)C2)n[nH]1 (centres undefined)	> 30.2 µM
Cn1ccnc1-c1cn(Cc2cn3c(n2)SCC3)nn1	> 30.2 µM
COC(=O)c1cccc2nc([C@H]3CCN(Cc4ccccc4)C3)oc12	> 30.2 µM

SMILES	IC50
O=C(c1ccnc(C2CCNCC2)c1)N1CCCC(CO)C1 (centres undefined)	> 30.2 µM
Cc1nn(C)c(Cl)c1C1CCCN1C(=O)c1ccncc1 (centres undefined)	> 30.2 µM
O=C(O)C1CCN(c2nc3c(-c4ccccc4F)csc3c(=O)[nH]2)CC1	> 30.2 µM
Cc1nc(C2CCCN(C(=O)c3ccc(Cl)cn3)C2)no1 (centres undefined)	> 30.2 µM
CCn1ncnc1C(C)NC(=O)CC1CCN(C(C)C)CC1 (centres undefined)	> 30.2 µM
Cc1csc(CN2CCC(C(=O)O)(n3ccc(-c4ccco4)n3)CC2)n1	> 30.2 µM
CCCS(=O)(=O)NCC(O)c1c(Cl)cccc1Cl (centres undefined)	> 30.2 µM
CC1CCN(c2ccc(C(=O)N3CCCC3c3ccc[nH]3)cn2)CC1 (centres undefined)	> 30.2 µM
O=C1N(Cc2ccccn2)C[C@H]2CN(C3CCC3)CCN12	> 30.2 µM
O=C(NCc1ccon1)c1c(F)cc(Br)cc1F	> 30.2 µM
COCCNC(=O)CCNc1cc(C)nc(-c2ccncc2)n1	> 30.2 µM
Cc1cccc(CN2CC3(CCN(C(N)=O)CC3)OCC2=O)n1	> 30.2 µM
CC(C)n1nnnc1-c1ccc(NC(=O)C(C)(C)C#N)cc1F	> 30.2 µM
c1cc(-c2nnc([C@H]3CCNC3)o2)ccn1	> 30.2 µM
O=C(C1CCOC1)N1Cc2ccccc2OC2(CCOCC2)C1 (centres undefined)	> 30.2 µM
CC[C@@H]1N(Cc2cc(OC)cc(OC)c2)CCC[C@]12CCC(=O)N2C	> 30.2 µM
Cc1nnc(CN(Cc2ccc3c(c2)OCO3)C2CCCCC2)o1	> 30.2 µM
CC(C)N1CCC(NC(=O)c2cn(-c3ccc(F)cc3)nn2)C1 (centres undefined)	> 30.2 µM
CCc1nccn1CC1CCCN1S(=O)(=O)Cc1ccccc1 (centres undefined)	> 30.2 µM
Cc1cc(C)nc(N2CCCC(C(=O)Nc3n[nH]c(C(C)C)n3)C2)n1 (centres undefined)	> 30.2 µM
Cc1nc(O)cc(C2(C)CCCNC2)n1 (centres undefined)	> 30.2 µM
O=C(c1cc2cc(F)ccc2[nH]1)N1CCCCC1Cn1cccn1 (centres undefined)	> 30.2 µM
CC(C)C(NC(=O)NCC1(CO)CC1)c1nnc2n1CCC2 (centres undefined)	> 30.2 µM

SMILES	IC50
Cc1csc(CN2CCC[C@]3(C[C@H](Oc4ccccn4)CO3)C2)n1	> 30.2 µM
Cc1nn(C)c(Cl)c1C1CCCN1CC(=O)Nc1cccnc1 (centres undefined)	> 30.2 µM
CC(C)CCc1n[nH]c(C(=O)O)c1Cl	> 50.1 µM
Cc1nn(-c2ccccc2)cc1C(=O)N1CCCC1c1cnn(C)c1 (centres undefined)	> 30.2 µM
O=C(CCNc1ncccn1)Nc1ccc(Cn2cncn2)cc1	> 30.2 µM
CC(C)C(C)(C#N)NC(=O)Cn1cc(C(N)=O)c(-c2ccccc2)n1 (centres undefined)	> 30.2 µM
CC(C)CC(NC(=O)c1cccs1)c1nc2cccnc2n1C (centres undefined)	> 30.2 µM
CN(Cc1nccs1)C1CCN(c2cccc(-c3cscn3)c2)CC1	> 30.2 µM
CC(C)c1noc(CN2CCN(C(=O)c3cccnc3O)CC2)n1	> 30.2 µM
COc1cccc(N2CCC(CNCc3cccc(C#N)c3)C2)c1 (centres undefined)	> 30.2 µM
CCNC(=O)C1(Cc2cc(-c3ccccc3)no2)CCCN(C)C1 (centres undefined)	> 30.2 µM
Cc1ccc(S(=O)(=O)Nc2ccc(N3CCSCC3)c(C(=O)O)c2)s1	> 30.2 µM (2×) and 32.4 µM and 45.1 µM
CC1c2ncc(Cn3cncn3)n2CCN1C(=O)c1ccsc1 (centres undefined)	> 30.2 µM
O=C1O[C@@H]2CN(c3cnccn3)C[C@@H]2N1CCCc1ccc(F)cc1	> 30.2 µM
Cc1cc(CN2CCOC(CNc3cccnn3)C2)no1 (centres undefined)	> 30.2 µM
Cc1ccc(NC2CCN(C(=O)c3cnn(C(C)(C)C)c3)CC2)nn1	> 50.1 µM
Cc1n[nH]c(C)c1NC(=O)CN1CCN(c2nccs2)C(C)C1 (centres undefined)	> 30.2 µM
CNc1cc(C)nc(C2CCN(CCO)CC2)n1	> 30.2 µM
COc1cccc([C@@]2(O)CC[C@@H]3CN(C(=O)c4ccn(C)n4)C[C@@H]32)c1	> 30.2 µM
COCCNC(=O)c1nc2c(s1)CCCN2c1ccc(C)nn1	> 30.2 µM
Cc1ccc(CCCC(=O)N(C)CCN2CCOCC2)cc1	> 30.2 µM
O=C(Nc1ccc(-n2cncn2)nc1)N(CC1CCOC1)C1CC1 (centres undefined)	> 30.2 µM
